This is an account of results in ChEMBL document CHEMBL3763094, “Synthesis of 2-arylfuro[3,2-b]pyridines: Effect of the C2-aryl group on melatoninergic activity” (Eur J Med Chem, 2016).

Activity calls are given as the source filed them. The calls are words filed in the database; no cut-off is given here.

Usually Ki stands for the dissociation constant of the complex between target and ligand, obtained from inhibition or displacement. Read a high Ki as lower affinity.

The species entered for experiment [1] is Homo sapiens. The experiment in a line: Selectivity ratio of Ki for human MT1 receptor to Ki for human MT2 receptor.
Experiment [2] addresses T1, Melatonin receptor type 1A (Homo sapiens, UniProt P48039). In words: Agonist activity at MT1 receptor (unknown origin) expressed in CHO cells incubated for 1 hr by [35S]GTPgammaS binding assay. Type of experiment: functional, cell-based. A general note: Binding of GTPγS marks nucleotide exchange on a G protein.
The target in experiment [3] is T1, Melatonin receptor type 1A. The experiment in a line: Displacement of [125I]2-Iodomelatonin from human MT1 receptor expressed in HEK293 cells after 120 mins by radioligand competition assay. Type of experiment: cell-based. For orientation: In a radioligand displacement assay an active substance lowers the binding of a labelled ligand.
The target in experiment [4] is T2, Melatonin receptor type 1B (Homo sapiens) (UniProt P49286).
T2 sequence (whole entry): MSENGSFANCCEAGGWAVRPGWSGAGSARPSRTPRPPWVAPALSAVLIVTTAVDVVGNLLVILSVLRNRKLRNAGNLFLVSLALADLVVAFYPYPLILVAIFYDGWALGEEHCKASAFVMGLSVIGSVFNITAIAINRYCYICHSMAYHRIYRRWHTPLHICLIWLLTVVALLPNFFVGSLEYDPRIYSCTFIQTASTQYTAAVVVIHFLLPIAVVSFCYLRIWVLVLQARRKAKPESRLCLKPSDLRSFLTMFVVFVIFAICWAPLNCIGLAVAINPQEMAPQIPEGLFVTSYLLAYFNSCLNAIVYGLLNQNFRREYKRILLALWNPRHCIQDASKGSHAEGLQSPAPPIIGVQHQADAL
The experiment in a line: Agonist activity at MT2 receptor (unknown origin) expressed in CHO cells incubated for 1 hr by [35S]GTPgammaS binding assay. In kind it is functional, cell-based.

Experiment [5] concerns the target T3, Melatonin receptor type 1B (Homo sapiens, UniProt P49286).
T3 sequence (P49286 whole entry): T2 sequence (whole entry)
In words: Displacement of [125I]2-Iodomelatonin from human MT2 receptor expressed in HEK293 cells after 120 mins by radioligand competition assay. Type of experiment: cell-based.

The target in experiment [6] is T1, Melatonin receptor type 1A. In words: Partial agonist activity at MT1 receptor (unknown origin) expressed in CHO cells incubated for 1 hr by [35S]GTPgammaS binding assay. Type of experiment: functional, cell-based.
In experiment [7] the target is T2, Melatonin receptor type 1B (Homo sapiens). In words: Antagonist activity at MT2 receptor (unknown origin) expressed in CHO cells assessed as inhibition of melatonin-induced response for 30 mins by [35S]GTPgammaS binding assay. Type of experiment: functional, cell-based.
Experiment [8] has the same target. The experiment in a line: Partial agonist activity at MT2 receptor (unknown origin) expressed in CHO cells incubated for 1 hr by [35S]GTPgammaS binding assay. Type of experiment: functional, cell-based.
The target in experiment [9] is T1, Melatonin receptor type 1A. In words: Antagonist activity at MT1 receptor (unknown origin) expressed in CHO cells assessed as inhibition of melatonin-induced response for 30 mins by [35S]GTPgammaS binding assay. Type of experiment: functional, cell-based.

T1 sequence (P48039 whole entry): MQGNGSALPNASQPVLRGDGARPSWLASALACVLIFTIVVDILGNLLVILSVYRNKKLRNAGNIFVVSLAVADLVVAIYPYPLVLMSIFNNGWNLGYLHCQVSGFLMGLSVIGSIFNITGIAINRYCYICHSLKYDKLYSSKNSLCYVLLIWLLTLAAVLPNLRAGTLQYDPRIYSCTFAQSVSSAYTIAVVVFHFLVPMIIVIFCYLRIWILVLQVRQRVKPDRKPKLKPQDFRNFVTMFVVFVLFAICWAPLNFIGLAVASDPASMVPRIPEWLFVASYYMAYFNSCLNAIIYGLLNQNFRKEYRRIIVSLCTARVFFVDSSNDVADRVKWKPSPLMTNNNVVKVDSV

As for `COc1ccc2oc(-c3ccc(F)cc3)c(CCNC(C)=O)c2n1`, the Ratio Ki in experiment [1] was 6.7. The outcome in experiment [2] and in [4] was Active. In addition, the Ki came to 0.2 nM in experiment [3] and 0.03 nM in experiment [5].
`CCC(=O)NCCCc1cc(OC)ccc1OCc1cccc(OC)c1`: the Ratio Ki in experiment [1] worked out at 790.
For the compound `COc1cc2c(CCNC(C)=O)coc2cn1`, the Ratio Ki in [1] worked out at 1.2. Moreover, the Ki in [3] worked out at 73 nM; in experiment [5], 59 nM.
On the same counts, the results for `COc1cc2c(CCNC(C)=O)c[nH]c2cn1` are 0.3, 9.5 nM and 35 nM.
`COc1ccc2oc(-c3c4ccccc4cc4ccccc34)c(CCNC(C)=O)c2n1`: the Ratio Ki in experiment [1] was 6.2. Further, the outcome in experiment [6] and in experiment [7] was Active. Besides, the inhibition constant (Ki) in experiment [3] was determined as 31 nM; in experiment [5], 5 nM.
`COc1ccc2oc(-c3ccccc3)c(CCNC(C)=O)c2n1`: the Ratio Ki in experiment [1] worked out at 0.3. Moreover, the result in experiment [2] and in experiment [4] was Active. Also, the figures for the Ki in experiment [3] and in [5] were 0.04 nM and 0.14 nM, respectively.
As to `COc1ccc2oc(I)c(CCNC(C)=O)c2n1`, the Ratio Ki in [1] stood at 2.5. Besides, the outcome in experiment [2] and in [4] was Active. The Ki turned out to be 0.2 nM in experiment [3] and 0.08 nM in experiment [5].
As to `COc1ccc2occ(CCNC(C)=O)c2n1`, the Ratio Ki in [1] worked out at 1.5. In addition, the outcome in experiment [2] and in experiment [4] was Active. Moreover, the Ki in experiment [3] worked out at 1.6 nM; in experiment [5], 1.2 nM.
On to `COc1ccc2[nH]cc(CCNC(C)=O)c2n1`, for which, in experiment [1], the Ratio Ki was 0.7.
As for `COc1ccc2oc(-c3c(C)cccc3C)c(CCNC(C)=O)c2n1`, in experiment [1], the Ratio Ki was 13.3. Also, the Ki stood at 120 nM in experiment [3] and 9 nM in [5]. The outcome in experiment [8] and in [9] was Active.
In the case of `COc1ccc2oc(-c3cccc4ccccc34)c(CCNC(C)=O)c2n1`, the Ratio Ki in [1] amounted to 152. Besides, the result in [7] and in experiment [9] was Active. The Ki in experiment [3] is 198 nM; in experiment [5], 1.3 nM.
As for `COc1ccc2oc(-c3ccc4ccccc4c3)c(CCNC(C)=O)c2n1`, the Ratio Ki in experiment [1] worked out at 22.2. The result in [7] and in [2] was Active. Moreover, the Ki in experiment [3] came out at 2.2 nM; in [5] it was 0.09 nM.
In the case of `COc1ccc2oc(-c3cc4ccccc4c4ccccc34)c(CCNC(C)=O)c2n1`, in experiment [1], the Ratio Ki amounted to 13.6. Moreover, the result in experiment [6] and in [7] was Active. The Ki in experiment [3] turned out to be 68 nM; in [5], 5 nM.
